Reference: patent US20240208963A1, “CRYSTALLINE MELANOCORTIN SUBTYPE-2 RECEPTOR (MC2R) ANTAGONIST” (Crinetics Pharmaceuticals, Inc., priority 2022, published 2024)
Read-outs that look alike come from different tables or passages of the source.

Experiments:
[1] = Salt screening XRPD stages: drying and overnight humidity exposure; settings: >95% relative humidity overnight
Protocol: XRPD analysis is typically done in three stages: 1) Wet: XRPD of the wet cake is done for all samples whenever solids appropriate for sampling were observed. 2) Dry: Unique solids are then left on XRPD plates and dried under vacuum at 50° C. for at least 3 h. XRPD of unique dry solids are then collected. 3) Humid: Solids are then exposed to >95% relative humidity overnight and XRPD on resulting solids is collected. The humid environment is generated by placing a beaker of saturated potassium sulfate in water in a sealed container. This procedure is not carried out for any amorphous solids obtained. All XRPD patterns are compared to counter ion XRPD patterns and known free molecule patterns.
A qualitive humidity exposure test was performed by exposing approximately 10 mg of the maleate to 80% RH overnight.

[2] = Dynamic vapor sorption (DVS); assay type: physicochemical
Protocol: DVS was performed using a DVS Intrinsic 1. The sample (20-25 mg) was loaded into a sample pan, suspended from a microbalance and exposed to a humidified stream of nitrogen gas. The sample was held for a minimum of 5 min at each level and only progressed to the next humidity level if there was <0.002% change in weight between measurements (interval: 60 s) or 240 min had elapsed. The following program was used: • 1. Equilibration at 50% RH • 2. 50% to 2%. (50%, 40%, 30%, 20%, 10%, and 2%) • 3. 2% to 95% (2%, 10%, 20%, 30%, 40%, 50%, 60%, 70%, 80%, 90%, and 95%) • 4. 95% to 2% (95%, 80%, 70%, 60%, 50%, 40%, 30%, 20%, 10%, and 2%) • 5. 2% to 50% (2%, 10%, 20%, 30%, 40%, and 50%)

[3] = Stability of crystalline forms at 40° C. and 75% relative humidity (XRPD, HPLC purity); settings: for Change by XRPD after storage / Degradation by HPLC purity analysis after storage: 40° C., 75% relative humidity
Protocol: Approximately 10 mg of the Crystalline Pattern D of Compound I Maleate, 20 mg of the Crystalline Pattern C of Compound I Maleate, and 10 mg of the Crystalline Pattern E of Compound I Mandelate were weighed into open 4 mL vials that were placed into a 20 mL vial containing a saturated NaCl solution. The vial was sealed and kept at 40° C. for 7 days, creating an atmosphere at 75% relative humidity in the system. After 7 days, the materials were sampled and plated for XRPD analysis.
The stability test was repeated on Patterns C and D of Compound I Maleate for 11 days.

[4] = Solubility in simulated fluids and water; assay type: physicochemical; settings: 37° C.
Protocol: Calibration samples for solubility in simulated fluids were prepared with freebase Compound I.
Solubility in simulated fluids were studied with the mandelate and maleate solids. The simulated fluids FaSSIF (fasted-state intestinal), FaSSGF (fasted-state gastric), and FeSSIF (fed-state intestinal) were removed from the refrigerator, warmed to room temperature, and the pH of each was measured. Between 1.9 and 2.0 mg of each salt was weighed into four vials and 1 mL of each fluid was added, including water. Stir bars (10 mm) were added to the vials and the vials were stirred at 37° C. After 30 mi (mandelate samples) or 1 h (maleate samples), the pH of each solution was measured, then 400 μL of each was removed and syringe filtered with 0.45 µm syringe filters. Approximately 300 μL of the recovered filtrate was diluted 5× with diluent and injected for HPLC analysis. The remainder of the samples in the vials were allowed to stir overnight. After 24 h stirring at 37° C., samples were filtered and diluted as before, and injected for analysis.

[5] = Solubility of solid state forms in solvents (gravimetric or solvent addition); assay type: physicochemical; settings: for solubility: thermodynamic from solid, read-out: Solubility
Protocol: The solubility of certain solid state forms of Compound I was determined in various solvents by either gravimetric solubility or solvent addition.
About 25 mg of compound was weighed into vials. Approximately 5 vol. (0.125 mL) of solvent was added to the solids and the mixtures stirred at the designated temperature (RT or 50° C.). Solutions were noted and an additional 0.125 mL of solvent was added to the slurries. […] If a thicker slurry was noted, 0.25 mL of solvent was added (total volume 0.5 mL). If a thick slurry was again noted, an additional 0.25 mL of solvent was added (total volume 0.75 mL). After stirring for 2 days, the slurries were centrifuged, the supernatant was collected into preweighed vials, and the solvent evaporated at 50° C. (ambient pressure) without stirring. The vials containing the solid residues were dried in a vacuum oven at 50 C, 10^−2-10^−1 Torr, for 3 h before weighing again to determine the mass of solid that was dissolved in the supernatant (i.e. mg solid/mL solvent).
About 20 mg of compound was weighed into vials. Solvent was added in aliquots and stirred at the designated temperature until complete dissolution was observed. This measurement gave a solubility range.

[6] = Form stability at ambient conditions for one week (XRPD); assay type: physicochemical; settings: listed as Pattern C, maleate
Text: Some of the samples generated in the antisolvent crystallization experiments were mixtures of Pattern B, Pattern C, and Pattern D. These samples were left at ambient conditions for one week, then analyzed again by XRPD.
Pure Pattern B was generated in the antisolvent crystallization with MIBK and heptane. […] The solids were scraped from the XRPD plate and used for simultaneous TGA/DSC analysis. […] After the solids required for the TGA/DSC analysis were transferred to the pan, the remainder of the solids were re-pressed to the XRPD sample plate and analyzed again.

CCOc1ccccc1-c1ccc(N2CCN(C(=O)C3(C(F)(F)F)CCC3)C[C@H]2CC)c(C(=O)N[C@@H]2CN3CCC2CC3)n1.O=C(O)/C=C\C(=O)O [Pattern C Maleate, N-[(3S)-1-azabicyclo[2.2.2]octan-3-yl]-6-(2-ethoxyphenyl)-3-[(2R)-2-ethyl-4-[1-(trifluoromethyl)-cyclobutanecarbonyl]piperazin-1-yl]pyridine-2-carboxamide maleate]
Stability after humidity exposure (XRPD, deliquescence) [1]: stable with no observed deliquescence
Hygroscopicity (in words) ([2]; DVS): moderately hygroscopic
Change by XRPD following the DVS analysis ([2]; after DVS from 2 to 95% RH): Slight changes
Reversible mass gain (DVS) ([2]; from 2 to 95% relative humidity): 9.18 wt. %
Behaviour at high humidity ([2]; high humidity): began to convert to amorphous
Change by XRPD after storage ([3]; 7 days): No visible change
Degradation by HPLC purity analysis after storage ([3]; 7 days): no degradation
Change by XRPD after storage ([3]; 11 days): No visible change
Degradation by HPLC purity analysis after storage ([3]; 11 days): no degradation
Stability on storage (in words) ([3]; over a week at 40° C. and 75% RH): stable
solubility at 1 h ([4]; FaSSGF (fasted-state simulated gastric fluid), pH 1.49, fassgf or other biorelevant, thermodynamic from solid, FaSSGF, 1 h): < 2.5 mg/mL
solubility at 24 h ([4]; FaSSGF (fasted-state simulated gastric fluid), pH 1.49, fassgf or other biorelevant, thermodynamic from solid, FaSSGF, 24 h): > 2.5 mg/mL
Sample pH ([4]; FaSSGF (initial pH 1.49), 1 h): 4.66
Sample pH ([4]; FaSSGF (initial pH 1.49), 24 h): 5.08
solubility at 24 h ([4]; FaSSIF (fasted-state simulated intestinal fluid), pH 6.35, thermodynamic from solid, FaSSIF, 24 h): 1.41 mg/mL
solubility at 1 h ([4]; FaSSIF (fasted-state simulated intestinal fluid), thermodynamic from solid, FaSSIF, 1 h): 1.24 mg/mL
Sample pH ([4]; FaSSIF (initial pH 6.35), 1 h): 6.23
Sample pH ([4]; FaSSIF (initial pH 6.35), 24 h): 6.98
Solids recovered from the solubility experiment (appearance, XRPD) ([4]; FaSSIF, after 24 h): oily and appeared as amorphous
solubility at 1 h ([4]; FeSSIF (fed-state simulated intestinal fluid), pH 4.83, thermodynamic from solid, FeSSIF, 1 h): > 2.5 mg/mL
solubility at 24 h ([4]; FeSSIF (fed-state simulated intestinal fluid), pH 4.83, thermodynamic from solid, FeSSIF, 24 h): > 2.5 mg/mL
Sample pH ([4]; FeSSIF (initial pH 4.83), 1 h): 1.50
Sample pH ([4]; FeSSIF (initial pH 4.83), 24 h): 1.89
solubility at 1 h ([4]; thermodynamic from solid, water, 1 h): > 2.5 mg/mL
solubility at 24 h ([4]; thermodynamic from solid, water, 24 h): > 2.5 mg/mL
Sample pH ([4]; water, 1 h): ~6.35
Sample pH ([4]; water, 24 h): 5.50
Solubility (in words) ([5]; MeOH, EtOH, acetone, THF, ACN, MEK, DMSO, and water containing systems at 8:2 vol. water:organic): freely soluble
solubility ([5]; aqueous with cosolvent or surfactant or cyclodextrin, ACN:water (2:8 vol.), RT): > 200 mg/mL
solubility ([5]; aqueous with cosolvent or surfactant or cyclodextrin, IPA:water (2:8 vol.), RT): > 200 mg/mL
solubility ([5]; aqueous with cosolvent or surfactant or cyclodextrin, acetone:water (2:8 vol.), RT): > 200 mg/mL
solubility ([5]; organic solvent or mixture, ACN, RT): > 200 mg/mL
solubility ([5]; organic solvent or mixture, DMSO, RT): > 200 mg/mL
solubility ([5]; organic solvent or mixture, EtOAc, 50° C.): 34 mg/mL
solubility ([5]; organic solvent or mixture, EtOAc, RT): 21 mg/mL
solubility ([5]; organic solvent or mixture, EtOH, RT): > 200 mg/mL
solubility ([5]; organic solvent or mixture, IPA, 50° C.): > 500 mg/mL
solubility ([5]; organic solvent or mixture, IPA, RT): > 200 mg/mL
solubility ([5]; organic solvent or mixture, IPA:MtBE (1:1 vol.), 50° C.): 36 to 43 mg/mL
solubility ([5]; organic solvent or mixture, IPA:heptane (1:1 vol.), 50° C.): 16 to 19 mg/mL
solubility ([5]; organic solvent or mixture, IPAc, 50° C.): 13 mg/mL
solubility ([5]; organic solvent or mixture, IPAc, RT): 8 mg/mL
solubility ([5]; organic solvent or mixture, MEK, RT): > 200 mg/mL
solubility ([5]; organic solvent or mixture, MIBK, 50° C.): 71 mg/mL
solubility ([5]; organic solvent or mixture, MIBK, RT): 49 mg/mL
solubility ([5]; organic solvent or mixture, MeOAc, 50° C.): > 500 mg/mL
solubility ([5]; organic solvent or mixture, MeOAc, RT): > 200 mg/mL
solubility ([5]; organic solvent or mixture, MeOAc:IPAc (1:1 vol.), 50° C.): 37 to 45 mg/mL
solubility ([5]; organic solvent or mixture, MeOH, RT): > 200 mg/mL
solubility ([5]; organic solvent or mixture, MtBE, 50° C.): 4 mg/mL
solubility ([5]; organic solvent or mixture, MtBE, RT): 4 mg/mL
solubility ([5]; organic solvent or mixture, THF, RT): > 200 mg/mL
solubility ([5]; organic solvent or mixture, acetone, RT): > 200 mg/mL
solubility ([5]; organic solvent or mixture, acetone:heptane (1:1 vol.), 50° C.): 31 to 37 mg/mL
solubility ([5]; organic solvent or mixture, chloroform, RT): > 200 mg/mL
solubility ([5]; organic solvent or mixture, cyclohexane, 50° C.): 3 mg/mL
solubility ([5]; organic solvent or mixture, cyclohexane, RT): < 3 mg/mL
solubility ([5]; organic solvent or mixture, n-heptane, 50° C.): 3 mg/mL
solubility ([5]; organic solvent or mixture, n-heptane, RT): < 3 mg/mL
solubility ([5]; organic solvent or mixture, toluene, 50° C.): 7 mg/mL
solubility ([5]; organic solvent or mixture, toluene, RT): < 3 mg/mL
Behaviour in solvent (in words) ([5]; water and 95:5 vol. water:organic systems): Gels/gums were generated
Form conversion by XRPD at ambient conditions [6]: no observable conversion
